Experiments:
Experiment in all cases: relative viability (nuclei count vs DMSO), 5 days (fraction); higher = more cells survive
COR-L 105 = tested on: COR-L 105
Outline: (§1)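 Five library-drug doses in √10 steps were combined with a fixed anchor-drug dose, or a single drug was given alone, by pin tool to lung cancer cell lines in 1536-well plates the day after seeding. Nuclei were stained and counted after 5 days. Relative viability is the nuclei count in treated wells over that in vehicle wells, taken as the median of duplicate plates.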

EPLC-272H = tested on: EPLC-272H
Outline: as §1

HCC-15 = tested on: HCC-15
Outline: as §1

HCC-366 = tested on: HCC-366
Outline: as §1

HCC-44 = tested on: HCC-44
Outline: as §1

HCC-78 = tested on: HCC-78
Outline: as §1

HCC-827 = tested on: HCC-827
Outline: as §1

NCI-H1437 = tested on: NCI-H1437
Outline: as §1

NCI-H1792 = tested on: NCI-H1792
Outline: as §1

NCI-H1944 = tested on: NCI-H1944
Outline: as §1

NCI-H2085 = tested on: NCI-H2085
Outline: as §1

NCI-H3122 = tested on: NCI-H3122
Outline: as §1

NCI-H358 = tested on: NCI-H358
Outline: as §1

NCI-H661 = tested on: NCI-H661
Outline: as §1

NCI-H727 = tested on: NCI-H727
Outline: as §1

PC-14 = tested on: PC-14
Outline: as §1

SK-LU-1 = tested on: SK-LU-1
Outline: as §1

SK-MES-1 = tested on: SK-MES-1
Outline: as §1

UMC-11 = tested on: UMC-11
Outline: as §1

COCC1(CO)C(=O)C2CCN1CC2 (stereo not given) [PRIMA-1MET] + CS(=O)(=O)CCNCc1ccc(-c2ccc3ncnc(Nc4ccc(OCc5cccc(F)c5)c(Cl)c4)c3c2)o1 [Lapatinib] (partner 2 µM)
relative viability (COR-L 105; first compound 0.2 µM): 0.45 | relative viability (COR-L 105; first compound 0.6325 µM): 0.33 | relative viability (COR-L 105; first compound 2 µM): 0.312 | relative viability (COR-L 105; first compound 6.325 µM): 0.419 | relative viability (COR-L 105; first compound 20 µM): 0.22 | relative viability (EPLC-272H; first compound 0.2 µM): 0.871 | relative viability (EPLC-272H; first compound 0.6325 µM): 0.767 | relative viability (EPLC-272H; first compound 2 µM): 0.905 | relative viability (EPLC-272H; first compound 6.325 µM): 0.971 | relative viability (EPLC-272H; first compound 20 µM): 0.333 | relative viability (HCC-15; first compound 0.2 µM): 0.811 | relative viability (HCC-15; first compound 0.6325 µM): 0.743 | relative viability (HCC-15; first compound 2 µM): 0.777 | relative viability (HCC-15; first compound 6.325 µM): 0.853 | relative viability (HCC-15; first compound 20 µM): 0.623 | relative viability (HCC-366; first compound 0.2 µM): 1.28 | relative viability (HCC-366; first compound 0.6325 µM): 0.856 | relative viability (HCC-366; first compound 6.325 µM): 0.915 | relative viability (HCC-366; first compound 20 µM): 0.016 | relative viability (HCC-44; first compound 0.2 µM): 1.02 | relative viability (HCC-44; first compound 0.6325 µM): 0.775 | relative viability (HCC-44; first compound 2 µM): 0.99 | relative viability (HCC-44; first compound 6.325 µM): 1.01 | relative viability (HCC-44; first compound 20 µM): 0.994 | relative viability (HCC-78; first compound 0.2 µM): 0.984 | relative viability (HCC-78; first compound 0.6325 µM): 0.539 | relative viability (HCC-78; first compound 6.325 µM): 0.78 | relative viability (HCC-78; first compound 20 µM): 0.686 | relative viability (HCC-827; first compound 0.2 µM): 0.22 | relative viability (HCC-827; first compound 0.6325 µM): 0.164 | relative viability (HCC-827; first compound 2 µM): 0.198 | relative viability (HCC-827; first compound 6.325 µM): 0.184 | relative viability (HCC-827; first compound 20 µM): 0.198 | relative viability (NCI-H1437; first compound 0.2 µM): 0.936 | relative viability (NCI-H1437; first compound 0.6325 µM): 0.703 | relative viability (NCI-H1437; first compound 2 µM): 0.765 | relative viability (NCI-H1437; first compound 6.325 µM): 0.82 | relative viability (NCI-H1437; first compound 20 µM): 0.694 | relative viability (NCI-H1792; first compound 0.2 µM): 0.825 | relative viability (NCI-H1792; first compound 0.6325 µM): 0.769 | relative viability (NCI-H1792; first compound 2 µM): 0.868 | relative viability (NCI-H1792; first compound 6.325 µM): 0.963 | relative viability (NCI-H1792; first compound 20 µM): 0.807 | relative viability (NCI-H1944; first compound 0.2 µM): 0.971 | relative viability (NCI-H1944; first compound 0.6325 µM): 0.6 | relative viability (NCI-H1944; first compound 6.325 µM): 0.836 | relative viability (NCI-H1944; first compound 20 µM): 0.823 | relative viability (NCI-H2085; first compound 0.2 µM): 0.814 | relative viability (NCI-H2085; first compound 0.6325 µM): 0.591 | relative viability (NCI-H2085; first compound 2 µM): 0.523 | relative viability (NCI-H2085; first compound 6.325 µM): 0.54 | relative viability (NCI-H2085; first compound 20 µM): 0.493 | relative viability (NCI-H3122; first compound 0.2 µM): 0.711 | relative viability (NCI-H3122; first compound 0.6325 µM): 1.04 | relative viability (NCI-H3122; first compound 2 µM): 1.03 | relative viability (NCI-H3122; first compound 6.325 µM): 0.996 | relative viability (NCI-H3122; first compound 20 µM): 0.954 | relative viability (NCI-H358; first compound 0.2 µM): 0.486 | relative viability (NCI-H358; first compound 0.6325 µM): 0.431 | relative viability (NCI-H358; first compound 6.325 µM): 0.471 | relative viability (NCI-H358; first compound 20 µM): 0.0399 | relative viability (NCI-H661; first compound 0.2 µM): 0.531 | relative viability (NCI-H661; first compound 0.6325 µM): 0.467 | relative viability (NCI-H661; first compound 6.325 µM): 0.493 | relative viability (NCI-H661; first compound 20 µM): 0.266 | relative viability (NCI-H727; first compound 0.2 µM): 0.559 | relative viability (NCI-H727; first compound 0.6325 µM): 0.769 | relative viability (NCI-H727; first compound 2 µM): 0.503 | relative viability (NCI-H727; first compound 6.325 µM): 0.624 | relative viability (NCI-H727; first compound 20 µM): 0.113 | relative viability (PC-14; first compound 0.2 µM): 0.396 | relative viability (PC-14; first compound 0.6325 µM): 0.326 | relative viability (PC-14; first compound 2 µM): 0.251 | relative viability (PC-14; first compound 6.325 µM): 0.367 | relative viability (PC-14; first compound 20 µM): 0.358 | relative viability (SK-LU-1; first compound 0.2 µM): 1.12 | relative viability (SK-LU-1; first compound 0.6325 µM): 0.667 | relative viability (SK-LU-1; first compound 2 µM): 0.61 | relative viability (SK-LU-1; first compound 6.325 µM): 0.784 | relative viability (SK-LU-1; first compound 20 µM): 0.235 | relative viability (SK-MES-1; first compound 0.2 µM): 0.571 | relative viability (SK-MES-1; first compound 0.6325 µM): 0.365 | relative viability (SK-MES-1; first compound 2 µM): 0.448 | relative viability (SK-MES-1; first compound 6.325 µM): 0.477 | relative viability (SK-MES-1; first compound 20 µM): 0.516 | relative viability (UMC-11; first compound 0.2 µM): 1.12 | relative viability (UMC-11; first compound 0.6325 µM): 0.898 | relative viability (UMC-11; first compound 2 µM): 0.755 | relative viability (UMC-11; first compound 6.325 µM): 0.961 | relative viability (UMC-11; first compound 20 µM): 0.991

Reference: the supplement of paper PMC10307832
